Reference: PubChem BioAssay AID330 (DTP/NCI, 2004)
Where “and” joins values, the source holds several entries; their conditions need not be identical. Identical values can stand only once. Toxic doses and inconclusive results are not listed.

Tested on: P388 leukemia ip, CD2F1 mice, survival T/C
Experiment: NCI In Vivo Anticancer Drug Screen. Data for tumor model P388 Leukemia (intraperitoneal) in CD2F1 (CDF1) mice
Conditions: endpoint: median survival time, higher = longer survival
Summary of the method: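 Mice carrying the transplanted tumor received test compound or vehicle. Survival was recorded in each group, and the value is the treated-group measurement divided by that of the vehicle-treated control group.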

[1] = dose: 12.5 mg/kg/injection, schedule: Q01DX009 (ip), vehicle: saline
[2] = dose: 25.0 mg/kg/injection, schedule: Q01DX009 (ip), vehicle: saline
[3] = dose: 50.0 mg/kg/injection, schedule: Q01DX009 (ip), vehicle: saline
[4] = dose: 50.0 mg/kg/injection, schedule: Q01DX005 (ip), vehicle: saline with Tween-80
[5] = dose: 100.0 mg/kg/injection, schedule: Q01DX005 (ip), vehicle: saline with Tween-80
[6] = dose: 200.0 mg/kg/injection, schedule: Q01DX005 (ip), vehicle: saline with Tween-80

Structure (SMILES): Nc1ncn(C2OC(CO)C(O)C2O)c(=O)n1 (stereo unspecified)
- T/C (dose: 0.19 mg/kg/injection, schedule: Q01DX009 (ip), vehicle: saline with Tween-80): 122 % of control
- T/C (dose: 0.38 mg/kg/injection, schedule: Q01DX009 (ip), vehicle: saline with Tween-80): 154 % of control
- T/C (dose: 0.75 mg/kg/injection, schedule: Q01DX009 (ip), vehicle: Klucel (hydroxypropylcellulose) (HPC)): 163 % of control
- T/C (dose: 0.75 mg/kg/injection, schedule: Q01DX009 (ip), vehicle: saline with Tween-80): 181 % of control
- T/C (dose: 0.75 mg/kg/injection, schedule: Q01DX009 (ip), vehicle: saline): 166 % of control and 172 % of control and 173 % of control
- T/C (dose: 1.0 mg/kg/injection, schedule: Q01DX005 (ip), vehicle: saline): 172 % of control
- T/C (dose: 1.0 mg/kg/injection, schedule: Q01DX005 (ip), vehicle: water): 150 % of control
- T/C (dose: 1.5 mg/kg/injection, schedule: Q01DX009 (ip), vehicle: Klucel (hydroxypropylcellulose) (HPC)): 190 % of control
- T/C (dose: 1.5 mg/kg/injection, schedule: Q01DX009 (ip), vehicle: saline with Tween-80): 195 % of control
- T/C (dose: 1.5 mg/kg/injection, schedule: Q01DX009 (ip), vehicle: saline): 171 % of control and 185 % of control
- T/C (dose: 1.56 mg/kg/injection, schedule: Q01DX009 (ip), vehicle: saline): 224 % of control
- T/C (dose: 2.0 mg/kg/injection, schedule: Q01DX005 (ip), vehicle: water): 174 % of control
- T/C (dose: 2.0 mg/kg/injection, schedule: Q01DX009 (ip), vehicle: saline): 209 % of control and 210 % of control
- T/C (dose: 2.59 mg/kg/injection, schedule: Q04DX003 (ip), vehicle: saline): 162 % of control
- T/C (dose: 2.7 mg/kg/injection, schedule: Q01DX009 (ip), vehicle: saline): 233 % of control
- T/C (dose: 3.0 mg/kg/injection, schedule: Q01DX009 (ip), vehicle: Klucel (hydroxypropylcellulose) (HPC)): 245 % of control
- T/C (dose: 3.13 mg/kg/injection, schedule: Q01DX009 (ip), vehicle: saline): 262 % of control
- T/C (dose: 4.0 mg/kg/injection, schedule: Q01DX005 (ip), vehicle: water): 215 % of control
- T/C (dose: 4.0 mg/kg/injection, schedule: Q01DX009 (ip), vehicle: saline): 245 % of control and 265 % of control
- T/C (dose: 4.32 mg/kg/injection, schedule: Q04DX003 (ip), vehicle: saline): 178 % of control
- T/C (dose: 4.5 mg/kg/injection, schedule: Q01DX009 (ip), vehicle: saline): 282 % of control
- T/C (dose: 6.0 mg/kg/injection, schedule: Q01DX009 (ip), vehicle: Klucel (hydroxypropylcellulose) (HPC)): 95 % of control
- T/C (dose: 7.2 mg/kg/injection, schedule: Q04DX003 (ip), vehicle: saline): 200 % of control
- T/C (dose: 8.0 mg/kg/injection, schedule: Q01DX005 (ip), vehicle: saline): 252 % of control and 256 % of control and 290 % of control
- T/C (dose: 8.0 mg/kg/injection, schedule: Q01DX005 (ip), vehicle: water): 66 % of control
- T/C (dose: 8.64 mg/kg/injection, schedule: Q04DX002 (ip), vehicle: saline): 160 % of control
- T/C (dose: 12.0 mg/kg/injection, schedule: Q04DX003 (ip), vehicle: saline): 247 % of control
- T/C (dose: 12.5 mg/kg/injection, schedule: Q01DX005 (ip), vehicle: saline): 162 % of control
- T/C [1]: 196 % of control
- T/C (dose: 14.4 mg/kg/injection, schedule: Q04DX002 (ip), vehicle: saline): 175 % of control
- T/C (dose: 16.0 mg/kg/injection, schedule: Q01DX005 (ip), vehicle: saline): 273 % of control
- T/C (dose: 20.0 mg/kg/injection, schedule: Q01DX009 (ip), vehicle: saline): 223 % of control
- T/C (dose: 20.0 mg/kg/injection, schedule: Q04DX003 (ip), vehicle: saline): 279 % of control
- T/C (dose: 24.0 mg/kg/injection, schedule: Q04DX002 (ip), vehicle: saline): 200 % of control
- T/C (dose: 25.0 mg/kg/injection, schedule: Q01DX005 (ip), vehicle: saline): 176 % of control
- T/C [2]: 196 % of control
- T/C (dose: 33.0 mg/kg/injection, schedule: Q01DX009 (ip), vehicle: saline): 233 % of control
- T/C (dose: 40.0 mg/kg/injection, schedule: Q04DX002 (ip), vehicle: saline): 217 % of control
- T/C (dose: 44.0 mg/kg/injection, schedule: Q01DX005 (ip), vehicle: saline): 178 % of control
- T/C (dose: 49.0 mg/kg/injection, schedule: Q01DX001 (ip), vehicle: saline): 165 % of control
- T/C (dose: 50.0 mg/kg/injection, schedule: Q01DX005 (ip), vehicle: saline): 189 % of control
- T/C [3]: 215 % of control
- T/C (dose: 67.0 mg/kg/injection, schedule: Q01DX005 (ip), vehicle: saline): 181 % of control
- T/C (dose: 100.0 mg/kg/injection, schedule: Q01DX005 (ip), vehicle: saline): 182 % of control and 196 % of control
- T/C (dose: 110.0 mg/kg/injection, schedule: Q01DX001 (ip), vehicle: saline): 100 % of control
- T/C (dose: 150.0 mg/kg/injection, schedule: Q01DX005 (ip), vehicle: saline): 187 % of control
- T/C (dose: 200.0 mg/kg/injection, schedule: Q01DX005 (ip), vehicle: saline): 185 % of control and 214 % of control
- T/C (dose: 200.0 mg/kg/injection, schedule: Q01DX009 (ip), vehicle: saline): 110 % of control
- T/C (dose: 400.0 mg/kg/injection, schedule: Q01DX009 (ip), vehicle: saline): 88 % of control

Structure (SMILES): CC1CC(N)=NC1C(=O)NCCC#N (stereo unspecified)
- T/C [1]: 97 % of control
- T/C [2]: 101 % of control
- T/C [3]: 98 % of control
- T/C (dose: 100.0 mg/kg/injection, schedule: Q01DX009 (ip), vehicle: saline): 90 % of control

Structure (SMILES): Cc1cc(/C=C2\SC(=S)NC2=O)cc(C)c1O
- T/C [4]: 110 % of control
- T/C [5]: 94 % of control
- T/C [6]: 90 % of control

Structure (SMILES): CCCCC1SCC(=O)N1c1nncs1 (stereo unspecified)
- T/C (dose: 60.0 mg/kg/injection, schedule: Q01DX005 (ip), vehicle: saline with Tween-80): 104 % of control
- T/C (dose: 120.0 mg/kg/injection, schedule: Q01DX005 (ip), vehicle: saline with Tween-80): 98 % of control
- T/C (dose: 240.0 mg/kg/injection, schedule: Q01DX005 (ip), vehicle: saline with Tween-80): 103 % of control

Structure (SMILES): COc1ccc(Cl)cc1NC(=O)Nc1nccs1
- T/C (dose: 25.0 mg/kg/injection, schedule: Q01DX009 (ip), vehicle: Klucel (hydroxypropylcellulose) (HPC)): 90 % of control
- T/C (dose: 50.0 mg/kg/injection, schedule: Q01DX009 (ip), vehicle: Klucel (hydroxypropylcellulose) (HPC)): 90 % of control
- T/C (dose: 100.0 mg/kg/injection, schedule: Q01DX009 (ip), vehicle: Klucel (hydroxypropylcellulose) (HPC)): 90 % of control
- T/C (dose: 200.0 mg/kg/injection, schedule: Q01DX009 (ip), vehicle: Klucel (hydroxypropylcellulose) (HPC)): 88 % of control

Structure (SMILES): O=C(CCc1n[nH]c(=S)o1)Nc1ccccc1
- T/C [4]: 102 % of control
- T/C [5]: 95 % of control
- T/C [6]: 96 % of control

Structure (SMILES): NC(=O)[C@@H]1CCCN1C(=O)c1cccnc1
- T/C (dose: 60.0 mg/kg/injection, schedule: Q01DX005 (ip), vehicle: saline): 98 % of control
- T/C (dose: 120.0 mg/kg/injection, schedule: Q01DX005 (ip), vehicle: saline): 97 % of control
- T/C (dose: 240.0 mg/kg/injection, schedule: Q01DX005 (ip), vehicle: saline): 103 % of control

Structure (SMILES): OCC1CCC(O)C=C2CCCC21 (stereo unspecified)
- T/C (dose: 60.0 mg/kg/injection, schedule: Q01DX005 (ip), vehicle: Klucel (hydroxypropylcellulose) (HPC)): 94 % of control
- T/C (dose: 120.0 mg/kg/injection, schedule: Q01DX005 (ip), vehicle: Klucel (hydroxypropylcellulose) (HPC)): 103 % of control
- T/C (dose: 240.0 mg/kg/injection, schedule: Q01DX005 (ip), vehicle: Klucel (hydroxypropylcellulose) (HPC)): 105 % of control

Structure (SMILES): Cc1cc(C)c(C#N)c(SC(C(=O)Nc2cc(C(F)(F)F)ccc2Cl)c2ccccc2)n1 (stereo unspecified)
- T/C (dose: 12.5 mg/kg/injection, schedule: Q01DX005 (ip), vehicle: Klucel (hydroxypropylcellulose) (HPC)): 90 % of control
- T/C (dose: 25.0 mg/kg/injection, schedule: Q01DX005 (ip), vehicle: Klucel (hydroxypropylcellulose) (HPC)): 89 % of control
- T/C (dose: 50.0 mg/kg/injection, schedule: Q01DX005 (ip), vehicle: Klucel (hydroxypropylcellulose) (HPC)): 89 % of control and 90 % of control
- T/C (dose: 100.0 mg/kg/injection, schedule: Q01DX005 (ip), vehicle: Klucel (hydroxypropylcellulose) (HPC)): 105 % of control
- T/C (dose: 200.0 mg/kg/injection, schedule: Q01DX005 (ip), vehicle: Klucel (hydroxypropylcellulose) (HPC)): 105 % of control

Structure (SMILES): CN(C)CCCO[Si](C)(c1ccccc1)c1ccc(F)cc1 (stereo unspecified)
- T/C (dose: 12.5 mg/kg/injection, schedule: Q01DX009 (ip), vehicle: saline with Tween-80): 105 % of control
- T/C (dose: 25.0 mg/kg/injection, schedule: Q01DX009 (ip), vehicle: saline with Tween-80): 101 % of control
- T/C (dose: 50.0 mg/kg/injection, schedule: Q01DX009 (ip), vehicle: saline with Tween-80): 110 % of control and 97 % of control
- T/C (dose: 100.0 mg/kg/injection, schedule: Q01DX009 (ip), vehicle: saline with Tween-80): 86 % of control
